In patent US20160244404A1, “OPTICAL ISOMERS OF (+) AND (-)-BENZHYDRYL UREAS AND (+) AND (-)-1-[(3-CHLOROPHENYL)-PHENYL-METHYL] UREA, A PHARMACEUTICAL COMPOSITION BASED THEREON AND A METHOD FOR PRODUCING SAID OPTICAL ISOMERS” (priority 2013, published 2016):
Marks after values point to notes of the source that are not given here.

Assays:
[1] = system: convulsions induced by pentylenetetrazol; test: Anticonvulsant potency against convulsions induced by pentylenetetrazol; type: in vivo; details: for Protection against stage 3 convulsions (% protection) / Protection against stage 4 convulsions (% protection) / Protection against stage 5 convulsions (% protection) / convulsive manifestations (points) induced by pentylenetetrazol (X ± SE): n = 10; for convulsive manifestations (points) induced by pentylenetetrazol (X ± SE): five-point scale; for mean convulsions score compared with that of the reference sample: all doses studied: 100 mg/kg, 150 mg/kg, 250 mg/kg; for anticonvulsive potency compared with the reference substance: on the basis of mean convulsions scores, 100, 150, 250 mg/kg
Method: (§1) Convulsions were induced by the administration of pentylenetetrazol. The severity (stage) of the convulsions was rated on a five-point scale. The anticonvulsant potency was rated on the basis of the substance's ability to reduce the severity of convulsions induced by the pentylenetetrazol. Halodif substances were administered intragastrically over 2 hr prior to the pentylenetetrazol. The pentylenetetrazol was administered subcutaneously. Probit analysis was used for statistical processing of the results with Student's test, ANOVA and criterion x. The differences in the results were considered statistically reliable at a significance level of p<0.05.
In the second phase the anticonvulsant potency of the reference substance was study in doses of 50 mg/kg, 100 mg/kg, 150 mg/kg, 200 mg/kg and 500 mg/kg (Table 2). The reference substance was racemic halodif. […] The halodif reference substance was used in doses of 50 mg/kg, 100 mg/kg, 150 mg/kg, 200 mg/kg and 500 mg/kg. Two hours after the halodif substance was administered to the animals the pentylenetetrazol (110 mg/kg) was administered and stage 3 and stage 5 convulsions were rated.
Samples were compared on the basis of the mean score for convulsive manifestations induced by pentylenetetrazol after administration of the samples under study.
The anticonvulsive potency of the samples of the halodif substance under study were also compared with respect to the proportion of animals in which the substance under study prevented the development of convulsions of differing severity induced by pentylenetetrazol. Table 4 presents the results expressed as the percentage of animals in which no convulsions of the specified stage developed (% protection).

[2] = system: animals; test: Establishing the convulsion-inducing dose of pentylenetetrazol; type: in vivo
Method: as §1
In the first phase of the study the optimum convulsion-inducing dose of pentylenetetrazol, CD97, which was 110 mg/kg (Table 1) was established.

[3] = doses of 100 mg/kg and 150 mg/kg, stages 3 and 4
[4] = reference substance 50 mg/kg intragastrically 2 h before pentylenetetrazol 110 mg/kg
[5] = reference substance 100 mg/kg intragastrically 2 h before pentylenetetrazol 110 mg/kg
[6] = reference substance 150 mg/kg intragastrically 2 h before pentylenetetrazol 110 mg/kg
[7] = reference substance 200 mg/kg intragastrically 2 h before pentylenetetrazol 110 mg/kg
[8] = reference substance 500 mg/kg intragastrically 2 h before pentylenetetrazol 110 mg/kg
[9] = sample dose 100 mg/kg 2 hours before pentylenetetrazol 110 mg/kg
[10] = sample dose 100 mg/kg intragastrically 2 hours before pentylenetetrazol 110 mg/kg
[11] = sample dose 150 mg/kg 2 hours before pentylenetetrazol 110 mg/kg
[12] = sample dose 150 mg/kg intragastrically 2 hours before pentylenetetrazol 110 mg/kg
[13] = sample dose 250 mg/kg 2 hours before pentylenetetrazol 110 mg/kg
[14] = sample dose 250 mg/kg intragastrically 2 hours before pentylenetetrazol 110 mg/kg
[15] = sample dose 100 mg/kg 2 hours before pentylenetetrazol 110 mg/kg, listed as Sample 2/(−) isomer
[16] = sample dose 150 mg/kg 2 hours before pentylenetetrazol 110 mg/kg, listed as Sample 2/(−) isomer
[17] = sample dose 250 mg/kg 2 hours before pentylenetetrazol 110 mg/kg, listed as Sample 2/(−) isomer
[18] = pentylenetetrazol dose 90, 5 animals in the group
[19] = pentylenetetrazol dose 100, 5 animals in the group
[20] = pentylenetetrazol dose 110, 5 animals in the group
[21] = sample dose 100 mg/kg 2 hours before pentylenetetrazol 110 mg/kg, listed as Sample 4/(+) isomer
[22] = sample dose 250 mg/kg 2 hours before pentylenetetrazol 110 mg/kg, listed as Sample 4/(+)isomer

## NC(=O)NC(c1ccccc1)c1cccc(Cl)c1 (racemic) [Reference sample, 1-[(3-chlorophenyl)-phenyl-methyl]urea, reference compound]
[1]; dose 200 mg/kg and higher, pentylenetetrazol 110 mg/kg
  appearance of stage 5 convulsions: completely prevented
[1]; [3]
  protection compared with samples 1 and 2 ((−)-isomer of halodif): reliably higher protection
  protection compared with samples 3 and 4 ((+)-isomer of halodif): reliably lower protection
[1]; lowest dose (50 mg/kg), pentylenetetrazol 110 mg/kg
  animals protected from tonic convulsions in all extremities (stage 5): 20%
[1]; [4]
  Proportion of animals with stage 3 convulsions (%, n = 5): 100%
  Proportion of animals with stage 5 convulsions (%, n = 5): 80%
[1]; [5]
  Proportion of animals with stage 3 convulsions (%, n = 5): 100%
  Proportion of animals with stage 5 convulsions (%, n = 5): 20%
[1]; [6]
  Proportion of animals with stage 3 convulsions (%, n = 5): 70%
  Proportion of animals with stage 5 convulsions (%, n = 5): 10%
[1]; [7]
  Proportion of animals with stage 3 convulsions (%, n = 5): 60%
  Proportion of animals with stage 5 convulsions (%, n = 5): 0%
[1]; [8]
  Proportion of animals with stage 3 convulsions (%, n = 5): 60%
  Proportion of animals with stage 5 convulsions (%, n = 5): 0%
[1]; [9]
  Protection against stage 3 convulsions (% protection): 20%
  Protection against stage 4 convulsions (% protection): 50%
  Protection against stage 5 convulsions (% protection): 80%
[1]; [10]
  convulsive manifestations (points) induced by pentylenetetrazol (X ± SE): 3.5 ± 0.31 points
[1]; [11]
  Protection against stage 3 convulsions (% protection): 30%
  Protection against stage 4 convulsions (% protection): 70%
  Protection against stage 5 convulsions (% protection): 90%
[1]; [12]
  convulsive manifestations (points) induced by pentylenetetrazol (X ± SE): 2.9 ± 0.28 points
[1]; [13]
  Protection against stage 3 convulsions (% protection): 50%
  Protection against stage 4 convulsions (% protection): 80%
  Protection against stage 5 convulsions (% protection): 100%
[1]; [14]
  convulsive manifestations (points) induced by pentylenetetrazol (X ± SE): 2.6 ± 0.33 points
[1]; starting at a dose of 150 mg/kg, pentylenetetrazol 110 mg/kg
  animals in which development of clonic convulsions (stage 3 convulsions) was prevented: 30-40%

## NC(=O)NC(c1ccccc1)c1cccc(Cl)c1 (single isomer, unassigned; (-)) [Sample 1/(−) isomer, (−)-1-[(3-chlorophenyl)-phenyl-methyl]urea]
[1]
  mean convulsions score compared with that of the reference sample: higher
  anticonvulsive potency compared with the reference substance: less anticonvulsive potency
[1]; [9]
  Protection against stage 3 convulsions (% protection): 10%
  Protection against stage 4 convulsions (% protection): 40%
  Protection against stage 5 convulsions (% protection): 60* %
[1]; [15]
  Protection against stage 4 convulsions (% protection): 20* %
  Protection against stage 5 convulsions (% protection): 70%
[1]; [10]
  convulsive manifestations (points) induced by pentylenetetrazol (X ± SE): 3.8 ± 0.39 points
[1]; sample dose 100 mg/kg intragastrically 2 hours before pentylenetetrazol 110 mg/kg, listed as Sample 2/(−) isomer
  convulsive manifestations (points) induced by pentylenetetrazol (X ± SE): 4.1 ± 0.23 points
[1]; sample dose 100 mg/kg intragastrically 2 hours before pentylenetetrazol 110 mg/kg, listed as sample 1
  convulsive manifestations (points) induced by pentylenetetrazol (X ± SE): 3.8±0.39 points
[1]; [11]
  Protection against stage 3 convulsions (% protection): 20%
  Protection against stage 4 convulsions (% protection): 70%
  Protection against stage 5 convulsions (% protection): 80%
[1]; [16]
  Protection against stage 3 convulsions (% protection): 10%
  Protection against stage 4 convulsions (% protection): 40* %
  Protection against stage 5 convulsions (% protection): 70%
[1]; [12]
  convulsive manifestations (points) induced by pentylenetetrazol (X ± SE): 2.9 ± 0.29 points
[1]; sample dose 150 mg/kg intragastrically 2 hours before pentylenetetrazol 110 mg/kg, listed as Sample 2/(−) isomer
  convulsive manifestations (points) induced by pentylenetetrazol (X ± SE): 3.5 ± 0.22 points
[1]; [13]
  Protection against stage 3 convulsions (% protection): 40%
  Protection against stage 4 convulsions (% protection): 80%
  Protection against stage 5 convulsions (% protection): 100%
[1]; [17]
  Protection against stage 3 convulsions (% protection): 30%
  Protection against stage 4 convulsions (% protection): 70%
[1]; [14]
  convulsive manifestations (points) induced by pentylenetetrazol (X ± SE): 2.8 ± 0.41 points
[1]; sample dose 250 mg/kg intragastrically 2 hours before pentylenetetrazol 110 mg/kg, listed as Sample 2/(−) isomer
  convulsive manifestations (points) induced by pentylenetetrazol (X ± SE): 3.0 ± 0.37 points
[1]; sample dose 250 mg/kg intragastrically 2 hours before pentylenetetrazol 110 mg/kg, listed as sample 1
  convulsive manifestations (points) induced by pentylenetetrazol (X ± SE): 2.8±0.41 points

## C1CCc2nnnn2CC1 [Pentylenetetrazol, pentylenetetrazol]
[2]; pentylenetetrazol dose 80 (no unit in table; mg/kg), 5 animals in the group
  Number of animals with stage 3 convulsions: 0
[2]; pentylenetetrazol dose 80, 5 animals in the group
  Proportion of animals with stage 3 (%): 0%
[2]; [18]
  Number of animals with stage 3 convulsions: 3
  Proportion of animals with stage 3 (%): 60%
[2]; [19]
  Number of animals with stage 3 convulsions: 4
  Proportion of animals with stage 3 (%): 80%
[2]; [20]
  Number of animals with stage 3 convulsions: 4
  Proportion of animals with stage 3 (%): 80%
[2]; subcutaneous
  optimum convulsion-inducing dose of pentylenetetrazol, CD97: 110 mg/kg

## NC(=O)N[C@H](c1ccccc1)c1cccc(Cl)c1 [Sample 3/(+) isomer, (+)-1-[(3-chlorophenyl)-phenyl-methyl]urea]
[1]
  mean convulsions score compared with that of the reference sample: lower convulsions score
  anticonvulsive potency compared with the reference substance: more anticonvulsive potency
[1]; all stages (3, 4 and 5)
  protection against convulsions, comparison of the samples: greater protection
[1]; in vivo
  anticonvulsive potency compared with its optical antipode: higher anticonvulsive potency
[1]; [9]
  Protection against stage 3 convulsions (% protection): 30%
  Protection against stage 4 convulsions (% protection): 60%
  Protection against stage 5 convulsions (% protection): 80%
[1]; [21]
  Protection against stage 3 convulsions (% protection): 20%
  Protection against stage 4 convulsions (% protection): 80%
  Protection against stage 5 convulsions (% protection): 100%
[1]; [10]
  convulsive manifestations (points) induced by pentylenetetrazol (X ± SE): 3.2 ± 0.42 points
[1]; sample dose 100 mg/kg intragastrically 2 hours before pentylenetetrazol 110 mg/kg, listed as Sample 4/(+) isomer
  convulsive manifestations (points) induced by pentylenetetrazol (X ± SE): 3.0 ± 0.21 points
[1]; [11]
  Protection against stage 3 convulsions (% protection): 40%
  Protection against stage 4 convulsions (% protection): 90%
  Protection against stage 5 convulsions (% protection): 100%
[1]; sample dose 150 mg/kg 2 hours before pentylenetetrazol 110 mg/kg, listed as Sample 4/(+)isomer
  Protection against stage 3 convulsions (% protection): 30%
[1]; [12]
  convulsive manifestations (points) induced by pentylenetetrazol (X ± SE): 2.5 ± 0.31 points
[1]; sample dose 150 mg/kg intragastrically 2 hours before pentylenetetrazol 110 mg/kg, listed as Sample 4/(+) isomer
  convulsive manifestations (points) induced by pentylenetetrazol (X ± SE): 2.6 ± 0.31 points
[1]; [13]
  Protection against stage 3 convulsions (% protection): 70%
  Protection against stage 4 convulsions (% protection): 100%
  Protection against stage 5 convulsions (% protection): 100%
[1]; [22]
  Protection against stage 3 convulsions (% protection): 50%
  Protection against stage 4 convulsions (% protection): 90%
[1]; [14]
  convulsive manifestations (points) induced by pentylenetetrazol (X ± SE): 1.9 ± 0.28 points
[1]; sample dose 250 mg/kg intragastrically 2 hours before pentylenetetrazol 110 mg/kg, listed as Sample 4/(+) isomer
  convulsive manifestations (points) induced by pentylenetetrazol (X ± SE): 2.5 ± 0.27 points
